Test in all cases: NCI 60 cell line screen
Holding throughout (assay type): cell-based

One experiment has as its system MDA-MB-231/ATCC. To be noted: Homo sapiens, Breast Cancer, read-out: Percent growth. In a few lines: (§1)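 Human tumour lines were grown in RPMI 1640 with 5% FBS and 2 mM L-glutamine, then exposed 48 h at 37 °C to five concentrations (max 10 µM) after 24 h pre-incubation. Growth was measured by sulforhodamine B protein staining at 515 nm relative to time-zero and untreated controls.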

For another experiment, the system named is OVCAR-3. To be noted: Homo sapiens; OVCAR-3, Ovarian Cancer; read-out: Percent growth. In outline: as §1
The subject of a further experiment is HCC-2998. To be noted: Homo sapiens; HCC-2998, Colon Cancer; read-out: Percent growth. In outline: as §1
The next experiment relates to LOX IMVI. The settings on record: Homo sapiens, Melanoma, read-out: Percent growth. In outline: (§2)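 Read-out was SRB staining of TCA-fixed cells at 515 nm, with growth computed against time-zero (Tz) and untreated control plates; TGI was taken where Ti = Tz. Drugs were tested at five concentrations up to 10 µM for 48 h at 37 °C, added 24 h after plating in RPMI 1640/5% FBS.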

Another experiment deals with OVCAR-5. To be noted: Homo sapiens; OVCAR-5, Ovarian Cancer; read-out: Percent growth. In outline: as §1
A further experiment has as its system NCI-H322M. The settings on record: Homo sapiens, Non-Small Cell Lung Cancer, read-out: Percent growth. In outline:
as §1

The test system of another experiment is COLO 205. To be noted: Homo sapiens; COLO 205, Colon Cancer; read-out: Percent growth. In outline: as §1
Another experiment has as its system MDA-MB-435. The settings on record: Homo sapiens; MDA-MB-435, Melanoma; read-out: Percent growth. In outline: as §1
For another experiment, the system named is SK-OV-3. To be noted: Homo sapiens; SK-OV-3, Ovarian Cancer; read-out: Percent growth. In a few lines:
as §1

Another experiment relates to SN12C. The settings on record: Homo sapiens, Renal Cancer, read-out: Percent growth. In outline: as §1
Another experiment deals with A549/ATCC. To be noted: Homo sapiens, Non-Small Cell Lung Cancer, read-out: Percent growth. In outline: as §1
The next experiment has as its system HL-60(TB). The settings on record: Homo sapiens, Leukemia, read-out: Percent growth. In a few lines: as §2
The test system of another experiment is DU-145. The settings on record: Homo sapiens; DU-145, Prostate Cancer; read-out: Percent growth. In a few lines:
as §1

For another experiment, the system named is IGROV1. To be noted: Homo sapiens, IGROV-1; IGROV1, Ovarian Cancer; read-out: Percent growth. In outline: as §1
The next experiment deals with HCT-116. The settings on record: Homo sapiens; HCT-116, Colon Cancer; read-out: Percent growth. In a few lines: as §1
Another experiment has as its system BT-549. To be noted: Homo sapiens; BT-549, Breast Cancer; read-out: Percent growth. In a few lines: as §1
In a further experiment the test system is OVCAR-8. The settings on record: Homo sapiens; OVCAR-8, Ovarian Cancer; read-out: Percent growth. In outline:
as §1

For another experiment, the system named is MALME-3M. The settings on record: Homo sapiens, Melanoma, read-out: Percent growth. In outline: as §1
The next experiment deals with SF-268. To be noted: Homo sapiens; SF-268, CNS-Cancer; read-out: Percent growth. In a few lines:
as §1

The test system of the next experiment is SF-539. To be noted: Homo sapiens; SF-539, CNS-Cancer; read-out: Percent growth. In a few lines: as §1
The next experiment has as its system MCF7. To be noted: Homo sapiens; MCF7, Breast Cancer; read-out: Percent growth. In a few lines: as §1
The test system of the next experiment is A498. To be noted: Homo sapiens; A498, Renal Cancer; read-out: Percent growth. In a few lines: as §1
The subject of a further experiment is CCRF-CEM. To be noted: Homo sapiens, Leukemia, read-out: Percent growth. In a few lines: as §1

The structures appear in SMILES notation.

As for `O=S(=O)(NCCNc1nccc(-n2cnc3ccccc32)n1)c1ccccc1` [12a, N-(2-((4-(1H-benzo [d]imidazol-1-yl)pyrimidin-2-yl)amino)ethyl)benzenesulfonamide], the activity at 10 µM stood at 87.6% in the experiment on MDA-MB-231/ATCC; 109% with OVCAR-3; 106% with HCC-2998; 95% in the experiment with LOX IMVI; 92.5% in the experiment on OVCAR-5; 94.9% in the experiment with NCI-H322M. Besides, the activity at 10 µM in the experiment with COLO 205 is 101%; with MDA-MB-435, 109%; in the experiment on SK-OV-3, 101%; with SN12C, 85.1%; with A549/ATCC it was 104%; with HL-60(TB), 113%. In addition, the activity at 10 µM in the experiment with DU-145 came out at 109%; in the experiment with IGROV1, 89.9%; in the experiment on HCT-116, 94.6%; in the experiment on BT-549, 106%; with OVCAR-8, 98%; in the experiment with MALME-3M, 101%. Moreover, the activity at 10 µM in the experiment with SF-268 came to 94.1%; with SF-539, 96.1%; with MCF7, 89.3%; in the experiment with A498, 88.6%; in the experiment on CCRF-CEM, 96%.

In the case of `COc1ccc(S(=O)(=O)NCCCNc2nccc(-n3cnc4ccccc43)n2)cc1` [12m, N-(3-((4-(1H-benzo [d]imidazol-1-yl)pyrimidin-2-yl)amino)propyl)-4-methoxy benzenesulfonamide], the activity at 10 µM is 84.1% with MDA-MB-231/ATCC; 105% in the experiment on OVCAR-3; 111% in the experiment on HCC-2998; 93.4% with LOX IMVI; 99.6% in the experiment on OVCAR-5; 104% in the experiment with NCI-H322M. Moreover, the activity at 10 µM in the experiment with COLO 205 is 108%; with MDA-MB-435, 98.7%; in the experiment on SK-OV-3 it was 96.2%; with SN12C, 92.4%; in the experiment on A549/ATCC it was 106%; with HL-60(TB) it was 110%. The activity at 10 µM with DU-145 was 100%; with IGROV1, 91.5%; in the experiment with HCT-116 it was 89.9%; in the experiment on BT-549, 92.9%; with OVCAR-8, 93.7%; in the experiment on MALME-3M, 107%. The activity at 10 µM is 91.6% with SF-268; 83.9% in the experiment with SF-539; 85.1% in the experiment with MCF7; 81.9% in the experiment on A498; 91.4% in the experiment with CCRF-CEM.

`O=S(=O)(NCCCNc1nccc(-n2cnc3ccccc32)n1)c1cccc2ccccc12` [12n, N-(3-((4-(1H-benzo [d]imidazol-1-yl)pyrimidin-2-yl)amino)propyl)naphthalene-1-sulfonamide]: the activity at 10 µM in the experiment with MDA-MB-231/ATCC was 83.1%; in the experiment on OVCAR-3, 96.8%; in the experiment on HCC-2998 it was 112%; in the experiment on LOX IMVI, 85.6%; in the experiment with OVCAR-5 it was 96.3%; in the experiment with NCI-H322M, 103%. For the same compound, the activity at 10 µM in the experiment with COLO 205 was 96.4%; in the experiment with MDA-MB-435, 93.4%; in the experiment on SK-OV-3, 92.5%; with SN12C it was 85.9%; in the experiment on A549/ATCC, 86.3%; in the experiment on HL-60(TB), 101%. The activity at 10 µM in the experiment with DU-145 was 94.5%; in the experiment with IGROV1, 98.1%; in the experiment on HCT-116 it was 75.9%; in the experiment on BT-549 it was 88.2%; in the experiment on OVCAR-8, 82.5%; with MALME-3M, 98.4%. Further, the activity at 10 µM was found to be 86.8% in the experiment with SF-268; 87.9% with SF-539; 83.4% in the experiment with MCF7; 72.1% in the experiment on A498; 70.9% in the experiment with CCRF-CEM.

The record behind these values is PMC8508980, “Design, Synthesis and Anticancer Profile of New 4-(1H-benzo[d]imidazol-1-yl)pyrimidin-2-amine-Linked Sulfonamide Derivatives with V600EBRAF Inhibitory Effect” (International Journal of Molecular Sciences, 2021).
